Assay results reported in PMC8459971, “Evaluation of the hepatotoxicity of the novel GPR40 (FFAR1) agonist CPL207280 in the rat and monkey” (PLoS ONE, 2021).
pIC50: −log10 of the molar value. Where “and” joins values, the source holds several entries; their conditions need not be identical. Identical values can stand only once.

Legend:
OATP1B1 = target: T1, OATP1B1 (Homo sapiens, UniProt Q9Y6L6); test: Uptake transporter inhibition assay, OATP1B1
T1 sequence (Q9Y6L6 1-691): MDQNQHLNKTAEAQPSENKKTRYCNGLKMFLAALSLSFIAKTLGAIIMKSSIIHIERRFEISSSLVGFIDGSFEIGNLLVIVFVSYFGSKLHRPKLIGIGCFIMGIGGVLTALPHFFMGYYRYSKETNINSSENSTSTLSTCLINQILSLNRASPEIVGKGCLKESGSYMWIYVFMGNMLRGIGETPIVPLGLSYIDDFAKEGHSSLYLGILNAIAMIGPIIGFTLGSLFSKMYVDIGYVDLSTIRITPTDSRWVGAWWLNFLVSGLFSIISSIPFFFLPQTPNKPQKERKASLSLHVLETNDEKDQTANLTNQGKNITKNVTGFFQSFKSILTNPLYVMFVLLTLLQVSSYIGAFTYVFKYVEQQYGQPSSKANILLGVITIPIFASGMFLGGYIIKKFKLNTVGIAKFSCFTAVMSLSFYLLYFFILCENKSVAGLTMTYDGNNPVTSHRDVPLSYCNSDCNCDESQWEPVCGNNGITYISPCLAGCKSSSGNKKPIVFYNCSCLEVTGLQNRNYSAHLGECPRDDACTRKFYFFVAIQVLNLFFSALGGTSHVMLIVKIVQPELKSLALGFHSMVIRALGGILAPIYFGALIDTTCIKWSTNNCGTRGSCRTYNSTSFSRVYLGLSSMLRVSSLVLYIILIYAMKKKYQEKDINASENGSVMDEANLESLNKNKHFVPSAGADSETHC
Description: For the uptake transporter inhibition assay, cells were washed twice with 100 μL of the appropriate buffer (HK, pH 7.4) for OATP1B1, followed by HBSS (pH 7.4) for (NTCP, OAT1, OAT2v1, OATP1A2, and OATP1B3). Uptake experiments were carried out at 37 ± 1°C in 50 μL of the respective buffer containing the probe substrate and the compound or solvent. […] After the experiment, cells were washed twice with 100 μL of cold appropriate buffer and lysed with 50 μL of 0.1 M NaOH. Radiolabeled probe substrate transport was determined by measuring an aliquot (35 μL) from each well for liquid scintillation counting.

[1] = Stability in microsomes, mini pig; type: in vitro ADME; settings: for half-life at 3 μM / microsomal CLint at 3 μM: Mini pig microsomes, mean n = 2; for average DEG [%]: minipig microsomes, with cofactors
Description: The final incubation volume was 500 μL. Two control compounds (verapamil and donepezil) were included for each microsomal species, along with the appropriate vehicle control. The reactions were terminated by transferring 50 μL of incubate to 100 μL methanol containing an internal standard (metoprolol) at appropriate time points (0, 10, 20, 40, 60, and 120 min for the test compound and 0, 5, 10, 20, 40, and 60 min for the control compounds). The termination plates were centrifuged at 4000 x g at 4°C for 30 min to precipitate the protein. The supernatants were then collected for analysis, and LC-MS/MS was used for detection purposes. The system consisted of an Acquity™ Binary Solvent Manager, Acquity™ 4-position heated column manager, 2777 Ultra High Pressure Autosampler, and a Xevo-TQ MS triple quadrupole mass spectrometer (Waters Ltd., Herts, UK). This process was carried out twice.

MRP4 = target: T2, MRP4 (Homo sapiens, UniProt O15439); test: Vesicular transport inhibition assay, MRP4; settings: for Accumulation (counts per minute; CPM) with AMP / Accumulation (counts per minute; CPM) with ATP: MRP4;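 note: membrane vesicles with MRP4 incubated with compound and probe substrate plus 4 mM ATP, or AMP as passive-diffusion background, vesicular substrate uptake read by liquid scintillation counting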;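 for Accumulation (counts per minute; CPM) with AMP: ATP 4 mM vs AMP background separates transporter uptake from diffusion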;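 for Accumulation (counts per minute; CPM) with ATP: ATP 4 mM vs AMP background separates transporter uptake from diffusion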
T2 sequence (O15439 1-1325): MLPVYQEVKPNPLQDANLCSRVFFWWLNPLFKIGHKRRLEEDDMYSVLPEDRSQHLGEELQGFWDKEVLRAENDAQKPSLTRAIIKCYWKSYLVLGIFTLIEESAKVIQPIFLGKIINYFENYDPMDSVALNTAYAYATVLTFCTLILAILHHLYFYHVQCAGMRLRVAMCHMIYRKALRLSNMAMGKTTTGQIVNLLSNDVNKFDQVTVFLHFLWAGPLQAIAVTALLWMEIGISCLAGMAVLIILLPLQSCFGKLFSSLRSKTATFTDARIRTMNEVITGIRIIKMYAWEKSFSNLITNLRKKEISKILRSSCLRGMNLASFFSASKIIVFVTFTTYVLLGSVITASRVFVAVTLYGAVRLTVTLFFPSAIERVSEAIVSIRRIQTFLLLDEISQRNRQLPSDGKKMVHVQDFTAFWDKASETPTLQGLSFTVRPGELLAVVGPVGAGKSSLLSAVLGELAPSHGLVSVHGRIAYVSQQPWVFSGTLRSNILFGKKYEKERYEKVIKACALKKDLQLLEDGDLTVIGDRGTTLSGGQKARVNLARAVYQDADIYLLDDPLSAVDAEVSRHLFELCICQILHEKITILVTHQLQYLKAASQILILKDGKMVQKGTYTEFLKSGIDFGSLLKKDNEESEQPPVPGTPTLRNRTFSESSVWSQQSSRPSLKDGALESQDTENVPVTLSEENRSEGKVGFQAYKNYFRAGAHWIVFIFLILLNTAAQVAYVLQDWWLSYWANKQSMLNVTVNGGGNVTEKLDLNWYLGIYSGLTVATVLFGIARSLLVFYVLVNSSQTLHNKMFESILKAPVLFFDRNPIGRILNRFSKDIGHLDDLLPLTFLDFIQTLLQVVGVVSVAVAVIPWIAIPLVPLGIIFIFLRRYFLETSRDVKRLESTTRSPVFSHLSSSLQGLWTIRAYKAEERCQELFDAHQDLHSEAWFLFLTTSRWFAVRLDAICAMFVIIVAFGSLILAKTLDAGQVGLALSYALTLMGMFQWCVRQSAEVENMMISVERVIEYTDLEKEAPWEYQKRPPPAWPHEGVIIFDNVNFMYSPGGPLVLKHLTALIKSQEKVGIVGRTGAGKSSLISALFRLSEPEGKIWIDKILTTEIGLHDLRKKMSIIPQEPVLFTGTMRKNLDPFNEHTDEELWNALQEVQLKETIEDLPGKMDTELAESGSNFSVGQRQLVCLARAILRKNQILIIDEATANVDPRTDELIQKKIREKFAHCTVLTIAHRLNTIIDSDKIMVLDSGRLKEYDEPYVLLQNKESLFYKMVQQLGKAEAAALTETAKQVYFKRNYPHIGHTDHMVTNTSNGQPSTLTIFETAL
Description: In the vesicular transport inhibition assay (for BSEP, MRP) compounds were incubated with membrane vesicle preparations and the probe substrate. Incubations were carried out in the presence of 4 mM ATP or AMP to distinguish between transporter-mediated uptake and passive diffusion into the vesicles. For MRP2 and MRP3, reactions were carried out in the presence of 2 mM glutathione. Compounds were added to the reaction mixture in 0.75 μL of solvent (1% of the final incubation volume). […] Reactions were initiated by the addition of 25 μL of 12 mM MgATP (or 12 mM AMP in assay buffer as a background control) and preincubated separately. Reactions were quenched by the addition of 200 μL of ice-cold washing buffer and immediate filtration via glass fiber filters mounted on a 96-well plate (filter plate). The filters were washed (5 × 200 μL of ice-cold washing buffer), dried, and the amount of substrate inside the filtered vesicles was determined by liquid scintillation counting.

CC#C[C@@H](CC(=O)O)c1ccc(OCC(C)=C(C)C)cc1 [CPL207280]
pIC50 (OATP1B1): 4.75
fold less inhibitory potency than TAK-875, OATP1B1 (OATP1B1): at least 10 fold
half-life at 3 μM [1]: 31 min
microsomal CLint at 3 μM [1]: 45 µL/min/mg
average DEG [%] ([1]; 0 min): 100.0%
average DEG [%] ([1]; 20 min): 67.0%
average DEG [%] ([1]; 40 min): 40.9%
average DEG [%] ([1]; 60 min): 26.3%
pIC50 (MRP4): 3.88
fold less inhibitory potency than TAK-875, MRP4 (MRP4): at least 10 fold
Accumulation (counts per minute; CPM) with AMP (MRP4; conc 0.10 µM): 1154 CPM and 1110 CPM
Accumulation (counts per minute; CPM) with ATP (MRP4; conc 0.10 µM): 5335 CPM and 5537 CPM
Accumulation (counts per minute; CPM) with AMP (MRP4; conc 1.00 µM): 1207 CPM and 1074 CPM
Accumulation (counts per minute; CPM) with ATP (MRP4; conc 1.00 µM): 5159 CPM and 5701 CPM
Accumulation (counts per minute; CPM) with AMP (MRP4; conc 3.00 µM): 1157 CPM and 1113 CPM
Accumulation (counts per minute; CPM) with ATP (MRP4; conc 3.00 µM): 5157 CPM and 5321 CPM
Accumulation (counts per minute; CPM) with AMP (MRP4; conc 10.00 µM): 1132 CPM and 1046 CPM
Accumulation (counts per minute; CPM) with ATP (MRP4; conc 10.00 µM): 4884 CPM and 5225 CPM
Accumulation (counts per minute; CPM) with AMP (MRP4; conc 30.00 µM): 1054 CPM and 1003 CPM
Accumulation (counts per minute; CPM) with ATP (MRP4; conc 30.00 µM): 4460 CPM and 4110 CPM
Accumulation (counts per minute; CPM) with AMP (MRP4; conc 100.00 µM): 1090 CPM and 1013 CPM
Accumulation (counts per minute; CPM) with ATP (MRP4; conc 100.00 µM): 3600 CPM and 3817 CPM
Accumulation (counts per minute; CPM) with AMP (MRP4; conc 300.00 µM): 1018 CPM and 920 CPM
Accumulation (counts per minute; CPM) with ATP (MRP4; conc 300.00 µM): 2078 CPM and 2196 CPM

Cc1cc(OCCCS(C)(=O)=O)cc(C)c1-c1cccc(COc2ccc3c(c2)OC[C@H]3CC(=O)O)c1 [TAK-875, fasiglifam, reference compound]
pIC50 (OATP1B1): 6.31
half-life at 3 μM [1]: 15 min
microsomal CLint at 3 μM [1]: 91.1 µL/min/mg
average DEG [%] ([1]; 0 min): 100.0%
average DEG [%] ([1]; 20 min): 29.4%
average DEG [%] ([1]; 40 min): 13.1%
average DEG [%] ([1]; 60 min): 5.83%
pIC50 (MRP4): 5.16
Accumulation (counts per minute; CPM) with AMP (MRP4; conc 0.07 µM): 1270 CPM and 1266 CPM
Accumulation (counts per minute; CPM) with ATP (MRP4; conc 0.07 µM): 5265 CPM and 5304 CPM
Accumulation (counts per minute; CPM) with AMP (MRP4; conc 0.21 µM): 1193 CPM and 1241 CPM
Accumulation (counts per minute; CPM) with ATP (MRP4; conc 0.21 µM): 5360 CPM and 5232 CPM
Accumulation (counts per minute; CPM) with AMP (MRP4; conc 0.62 µM): 1249 CPM and 1265 CPM
Accumulation (counts per minute; CPM) with ATP (MRP4; conc 0.62 µM): 5330 CPM and 5164 CPM
Accumulation (counts per minute; CPM) with AMP (MRP4; conc 16.67 µM): 1183 CPM and 1161 CPM
Accumulation (counts per minute; CPM) with ATP (MRP4; conc 16.67 µM): 1970 CPM and 2307 CPM
Accumulation (counts per minute; CPM) with AMP (MRP4; conc 50.00 µM): 1007 CPM and 1016 CPM
Accumulation (counts per minute; CPM) with ATP (MRP4; conc 50.00 µM): 1338 CPM and 1487 CPM
